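Assay format: 96-well plates, 48-hour exposure. Abbreviation: GI50, concentration required for 50% inhibition of growth. TGI: total growth inhibition.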
How the values were obtained:
Assay in all cases: inhibition of tumour cell growth, NCI panel, 48 h
786-0 renal = system: 786-0 renal
A549 NSCLC = system: A549 NSCLC
ACHN renal = system: ACHN renal
EKVX NSCLC = system: EKVX NSCLC
HCT-116 colon = system: HCT-116 colon
HS 578T breast = system: HS 578T breast
SF-268 CNS = system: SF-268 CNS
SK-OV-3 ovarian = system: SK-OV-3 ovarian
MALME-3M melanoma = system: MALME-3M melanoma
NCI-H23 lung = system: NCI-H23 lung

## COc1ccc(C(=O)/C=C/c2ccc(OCCCCCCCCCCOc3ccc(/C=C/C(=O)c4ccc(OC)c(OC)c4)cc3)cc2)c(OC)c1
786-0 renal
  TGI: > 100 µM
A549 NSCLC
  TGI: > 100 µM
ACHN renal
  TGI: > 100 µM
EKVX NSCLC
  TGI: > 100 µM
HCT-116 colon
  TGI: > 100 µM
HS 578T breast
  TGI: > 100 µM
SF-268 CNS
  TGI: > 100 µM
SK-OV-3 ovarian
  TGI: > 100 µM

## CCc1ccc(OCc2ccccc2C(=O)Nc2ccc3nc(C)cc(N)c3c2)cc1
A549 NSCLC
  GI50: 1.56 µM
  TGI: 3.27 µM
ACHN renal
  GI50: 1.73 µM
  TGI: 3.13 µM
HS 578T breast
  GI50: 1.79 µM
  TGI: 4.38 µM
MALME-3M melanoma
  GI50: 1.74 µM
  TGI: 3.35 µM
SK-OV-3 ovarian
  GI50: 1.64 µM
  TGI: 3 µM

## CN(C)CCN1C(=O)N(CCN(C)C)c2c3cc(O)ccc3nc3c([N+](=O)[O-])ccc1c23
786-0 renal
  TGI: 19 µM
A549 NSCLC
  TGI: 35.5 µM
ACHN renal
  TGI: 19.1 µM
HCT-116 colon
  TGI: 17.1 µM
HS 578T breast
  TGI: 45.8 µM
MALME-3M melanoma
  TGI: 29.6 µM
NCI-H23 lung
  TGI: 36.6 µM
SF-268 CNS
  TGI: 26.7 µM

## Clc1sc(Cl)c2c1[C@H](Br)C[C@@H]2Cl
786-0 renal
  TGI: 99.1 µM
A549 NSCLC
  TGI: > 100 µM
ACHN renal
  TGI: 37.4 µM
EKVX NSCLC
  TGI: > 100 µM
HCT-116 colon
  TGI: 65.9 µM
HS 578T breast
  TGI: 49.8 µM
MALME-3M melanoma
  TGI: 49.4 µM
NCI-H23 lung
  TGI: 43.2 µM
SF-268 CNS
  TGI: 49.9 µM
SK-OV-3 ovarian
  TGI: > 100 µM

## CC1CCc2sc3[nH]c(=S)n(C)c(=O)c3c2C1 (stereo not drawn)
786-0 renal
  TGI: > 100 µM
A549 NSCLC
  TGI: > 100 µM
ACHN renal
  TGI: > 100 µM
EKVX NSCLC
  TGI: 94.6 µM
HCT-116 colon
  TGI: > 100 µM
HS 578T breast
  TGI: > 100 µM
MALME-3M melanoma
  TGI: > 100 µM
NCI-H23 lung
  TGI: > 100 µM
SF-268 CNS
  TGI: > 100 µM
SK-OV-3 ovarian
  TGI: > 100 µM

## O=C(O)Cn1c[n+](NC(=O)Cc2ccccc2)cn1
786-0 renal
  TGI: > 10 µM
A549 NSCLC
  TGI: > 10 µM
ACHN renal
  TGI: > 10 µM
EKVX NSCLC
  TGI: > 10 µM
HCT-116 colon
  TGI: > 10 µM
HS 578T breast
  TGI: > 10 µM
MALME-3M melanoma
  TGI: > 10 µM
NCI-H23 lung
  TGI: > 10 µM
SF-268 CNS
  TGI: > 10 µM
SK-OV-3 ovarian
  TGI: > 10 µM

## CC(C)NC(=O)OCc1c(COC(=O)NC(C)C)n(C)c2c1ccc1cc(Cl)c(Cl)cc12
786-0 renal
  TGI: 20.5 µM
A549 NSCLC
  TGI: 95.7 µM
ACHN renal
  TGI: 24 µM
EKVX NSCLC
  TGI: 41.9 µM
HCT-116 colon
  TGI: 24 µM
HS 578T breast
  TGI: 68.9 µM
MALME-3M melanoma
  TGI: 22.7 µM
NCI-H23 lung
  TGI: 31.1 µM
SF-268 CNS
  TGI: 29.4 µM
SK-OV-3 ovarian
  TGI: 63.3 µM

## CC(=O)Oc1ccc2c(c1)O/C(=C\c1ccc(O)cc1)C2=O
786-0 renal
  TGI: > 100 µM
A549 NSCLC
  TGI: > 100 µM
ACHN renal
  TGI: > 100 µM
EKVX NSCLC
  TGI: > 100 µM
HCT-116 colon
  TGI: > 100 µM
HS 578T breast
  TGI: > 100 µM
NCI-H23 lung
  TGI: > 100 µM
SF-268 CNS
  TGI: > 100 µM
SK-OV-3 ovarian
  TGI: > 100 µM

## O=C1c2c(Br)sc(Br)c2[C@H]2OC(=S)N[C@@H]12
786-0 renal
  TGI: 27 µM
A549 NSCLC
  TGI: 37.5 µM
ACHN renal
  TGI: 11.1 µM
EKVX NSCLC
  TGI: 11.4 µM
HCT-116 colon
  TGI: 7.6 µM
HS 578T breast
  TGI: > 52.7 µM
MALME-3M melanoma
  TGI: 10.4 µM
NCI-H23 lung
  TGI: 15.1 µM
SF-268 CNS
  TGI: 12 µM
SK-OV-3 ovarian
  TGI: 29.9 µM

## Fc1ccc(OCc2ccc3nc(-c4ccccc4)c(Cl)nc3c2)cc1
786-0 renal
  TGI: 56.9 µM
A549 NSCLC
  TGI: > 100 µM
ACHN renal
  TGI: 71.7 µM
EKVX NSCLC
  TGI: > 100 µM
HCT-116 colon
  TGI: > 100 µM
HS 578T breast
  TGI: 67.7 µM
MALME-3M melanoma
  TGI: 35.9 µM
NCI-H23 lung
  TGI: > 100 µM
SF-268 CNS
  TGI: > 100 µM

## CCOP(=O)(CC1OC(CO)C(O)C1O)OCC (stereo not drawn)
786-0 renal
  TGI: > 100 µM
A549 NSCLC
  TGI: > 100 µM
ACHN renal
  TGI: > 100 µM
EKVX NSCLC
  TGI: > 100 µM
HCT-116 colon
  TGI: > 100 µM
HS 578T breast
  TGI: > 100 µM
MALME-3M melanoma
  TGI: > 100 µM
NCI-H23 lung
  TGI: > 64.1 µM
SF-268 CNS
  TGI: > 100 µM
SK-OV-3 ovarian
  TGI: > 100 µM

## O=C1CN(c2ccccc2)C(=O)C1C(=O)Nc1ccc(Cl)c(Cl)c1 (stereo not drawn)
A549 NSCLC
  TGI: 15.7 µM
ACHN renal
  TGI: 14.8 µM
NCI-H23 lung
  TGI: 20.2 µM
SF-268 CNS
  TGI: 21.2 µM
SK-OV-3 ovarian
  TGI: 15.8 µM

## Cn1c(=O)c2[nH]c(Nc3cccc(Cl)c3)nc2n(C)c1=O
786-0 renal
  TGI: > 10 µM
A549 NSCLC
  TGI: > 10 µM
EKVX NSCLC
  TGI: > 10 µM
MALME-3M melanoma
  TGI: > 10 µM
NCI-H23 lung
  TGI: > 10 µM
SF-268 CNS
  TGI: > 10 µM
SK-OV-3 ovarian
  TGI: > 10 µM

## Cc1nn(C(=O)c2ccccc2O)c2c1C(c1ccc([N+](=O)[O-])cc1)SC(N)=N2 (stereo not drawn)
786-0 renal
  TGI: > 10 µM
A549 NSCLC
  TGI: > 10 µM
ACHN renal
  TGI: > 8.37 µM
EKVX NSCLC
  TGI: > 10 µM
HCT-116 colon
  TGI: > 10 µM
HS 578T breast
  TGI: > 10 µM
MALME-3M melanoma
  TGI: > 10 µM
NCI-H23 lung
  TGI: > 10 µM
SF-268 CNS
  TGI: > 10 µM
SK-OV-3 ovarian
  TGI: > 10 µM

## COc1ccc2c(c1)CCC(CN1CCN(CCOC(c3ccccc3)c3ccccc3)CC1)C2O (stereo not drawn)
786-0 renal
  TGI: 32.6 µM
A549 NSCLC
  TGI: 36 µM
ACHN renal
  TGI: 25.6 µM
EKVX NSCLC
  TGI: 24.4 µM
HCT-116 colon
  TGI: 24.8 µM
HS 578T breast
  TGI: 41.3 µM
MALME-3M melanoma
  TGI: 32.4 µM
NCI-H23 lung
  TGI: 28.9 µM
SF-268 CNS
  TGI: 31.5 µM
SK-OV-3 ovarian
  TGI: 35.8 µM

## CN1C2CCC1C(CO)C(=O)C2 (stereo not drawn)
ACHN renal
  TGI: > 100 µM
HS 578T breast
  TGI: > 100 µM
MALME-3M melanoma
  TGI: 66.5 µM
NCI-H23 lung
  TGI: > 100 µM
SF-268 CNS
  TGI: > 100 µM
SK-OV-3 ovarian
  TGI: > 100 µM

## Cc1ccc2nc(Nc3ccccc3C)c(Nc3ccccc3C)nc2c1
786-0 renal
  TGI: > 100 µM
A549 NSCLC
  TGI: 49.1 µM
ACHN renal
  TGI: > 100 µM
EKVX NSCLC
  TGI: > 100 µM
HCT-116 colon
  TGI: 40.2 µM
HS 578T breast
  TGI: > 100 µM
MALME-3M melanoma
  TGI: 48.8 µM
NCI-H23 lung
  TGI: 45.6 µM
SF-268 CNS
  TGI: > 100 µM
SK-OV-3 ovarian
  TGI: > 100 µM

## N#Cc1ccnc(C(=O)N2CCCC2C(=O)O)c1 (stereo not drawn)
786-0 renal
  TGI: > 100 µM
A549 NSCLC
  TGI: > 100 µM
ACHN renal
  TGI: > 100 µM
EKVX NSCLC
  TGI: > 100 µM
HCT-116 colon
  TGI: > 100 µM
HS 578T breast
  TGI: > 100 µM
MALME-3M melanoma
  TGI: > 100 µM
NCI-H23 lung
  TGI: > 100 µM
SF-268 CNS
  TGI: > 100 µM

## Fc1cccc(F)c1C1SCc2nc3cc(Cl)ccc3n21 (stereo not drawn)
786-0 renal
  TGI: > 71.1 µM
A549 NSCLC
  TGI: > 100 µM
ACHN renal
  TGI: > 100 µM
EKVX NSCLC
  TGI: > 100 µM
HCT-116 colon
  TGI: 37 µM
HS 578T breast
  TGI: > 73.4 µM
MALME-3M melanoma
  TGI: > 31.6 µM
NCI-H23 lung
  TGI: > 100 µM
SF-268 CNS
  TGI: > 100 µM
SK-OV-3 ovarian
  TGI: > 100 µM

## CSc1ncnc2c1cnn2Cc1cn(COCC(O)CO)nn1 (stereo not drawn)
786-0 renal
  TGI: > 100 µM
A549 NSCLC
  TGI: > 100 µM
ACHN renal
  TGI: > 100 µM
EKVX NSCLC
  TGI: > 100 µM
HCT-116 colon
  TGI: > 100 µM
NCI-H23 lung
  TGI: > 100 µM
SF-268 CNS
  TGI: 52.7 µM
SK-OV-3 ovarian
  TGI: > 100 µM

## O=C1c2cc3c(cc2-c2c1c1cc(F)c(F)cc1c(=O)n2C[C@H](O)CO)OCO3
A549 NSCLC
  GI50: 0.069 µM
  TGI: 1.12 µM
EKVX NSCLC
  GI50: 0.652 µM
  TGI: 8.77 µM
HS 578T breast
  GI50: 0.939 µM
  TGI: > 100 µM
MALME-3M melanoma
  GI50: 0.196 µM
  TGI: 0.916 µM
NCI-H23 lung
  GI50: 0.0611 µM
  TGI: 0.613 µM
SF-268 CNS
  GI50: 0.0411 µM
  TGI: > 100 µM
SK-OV-3 ovarian
  GI50: 0.0481 µM
  TGI: 0.641 µM

Reference: PubChem BioAssay (NCI)
